Where a name gives a salt, the structure may show the parent alone.
What was measured:
in vitro = conditions: male, rat, microsomes
anesthetized rat = assay: Anesthetized rat spirometry screening assay; format: in vivo; conditions: 2 minute AUC of minute volume increase vs. comparator N-[2,6-di-(n-propylamino)-[1,3]pyrimidin-4-yl]-N,O-dimethyl-hydroxylamine
Excerpt: Effect of Compounds of the Invention on Respiratory Rate (RR), Tidal Volume (VT), and the Product Minute Volume Using an Anesthetized Rat Spirometry Screening Assay
Anesthetized rats provide a quick method of screening compounds for respiratory and cardiovascular activity. In contrast to the conscious rat model, this model offers an experimental set up with less variation in the baseline cardiovascular and respiratory measures. Compounds screened in this assay may be examined in a conscious rat model.
Rats were initially anesthetized with 3% isoflurane (inhaled) and femoral artery and vein cannulas were surgically inserted. Once cannulated, the rats were transitioned to urethane anesthesia (1.5 g/kg; i.v.) and a tracheal cut-down was performed. After placing the tracheal cannula, it was connected to a pneumotachometer to record respiratory airflow from which respiratory rate (RR), tidal volume (VT), and their product minute volume were derived. After the surgical preparation was complete, animals were allowed to stabilize for 30 minutes while respiratory rate, tidal volume, minute volume, blood pressure and heart rate were recorded continuously. Arterial blood gases (ABG) were obtained from arterial blood collected from the femoral artery. ABG measurements were taken before and 6 minutes after vehicle and each dose of compound administered. Compounds being screened were administered via bolus injections through the venous cannula followed by a saline flush (total time of administration is approximately 30 seconds), and the animal was monitored for at least 6 minutes for changes in cardiovascular efforts. Compounds were prepared in formulations identified to ensure optimal solubility. As such, vehicle controls were matched for the formulation of each compound tested. Dosing of the compound being screened was 0.1 and 0.3 mg/kg. The next dose was not administered until all cardiovascular and respiratory measures had returned to baseline levels. The positive control compounds used were N-[4,6-di-(n-propylamino)-[1,3,5]triazin-2-yl]-N,O-dimethyl-hydroxylamine or N-[2,6-di-(n-propylamino)-[1,3]pyrimidin-4-yl]-N,O-dimethyl-hydroxylamine (both administered at the end of each screening experiment (0.3 mg/kg dose) to validate the experiment and also to serve as a measure with which the compound being screened could be compared.
Data were analyzed by collecting cardiovascular and respiratory data in 30 second averages (BINs). Data were plotted 2 minutes before challenge and then 6 minutes after challenge.

[1] = In vitro metabolic stability in human liver microsomes (HLM); conditions: both, human, liver microsomes

SMILES: CCCNc1nc(OC)nc2c(NCCC)nc(NC)nc12 [Compound 120a, 6-Methoxy-N^2-methyl-N^4,N^8-di-n-propyl-pyrimido[5,4-d]pyrimidine-2,4,8-triamine]
- half-life at 5 μM (in vitro): 1.37 h
- AUC MV Inc (2 min) (ratio vs. std*) (anesthetized rat): 0.36 ratio vs. std
- half-life at 5 μM [1]: 1.9 h

SMILES: CCCNc1nc(NCc2cccc(Cl)c2C)nc2c(NCCC)nc(NC)nc12 [Compound 49a, N^2-(3-Chloro-2-methyl-benzyl)-N^6-methyl-N^4,N^8-di-n-propyl-pyrimido[5,4-d]pyrimidine-2,4,6,8-tetraamine hydrochloride]
- half-life at 5 μM (in vitro): 1.4 h
- AUC MV Inc (2 min) (ratio vs. std*) (anesthetized rat): 0.11 ratio vs. std
- half-life at 5 μM [1]: 3.17 h

SMILES: CCCNc1nc(N2CCCCC2)nc2c(NCCC)nc(NC)nc12 [Compound 43a, N^2-Methyl-N^4,N^8-di-n-propyl-6-(piperidin-1-yl)-pyrimido[5,4-d]pyrimidine-2,4,8-triamine]
- half-life at 5 μM (in vitro): 1.15 h
- AUC MV Inc (2 min) (ratio vs. std*) (anesthetized rat): 0.20 ratio vs. std
- half-life at 5 μM [1]: 1.63 h

SMILES: CCCNc1nc(N2CCCC2)nc2c(NCCC)nc(NC)nc12 [Compound 45a, N^2-Methyl-N^4,N^8-di-n-propyl-6-pyrrolidin-1-yl-pyrimido[5,4-d]pyrimidine-2,4,8-triamine]
- half-life at 5 μM (in vitro): > 8.33 h
- AUC MV Inc (2 min) (ratio vs. std*) (anesthetized rat): 0.41 ratio vs. std
- half-life at 5 μM [1]: > 8.33 h

SMILES: CCCCNc1nc(NC)c2nc(NCCCC)nc(NC)c2n1.Cl [Compound 83a, N^2,N^6-Di-n-butyl-N^4,N^8-dimethyl-pyrimido[5,4-d]pyrimidine-2,4,6,8-tetraamine hydrochloride]
- half-life at 5 μM (in vitro): 5.58 h
- AUC MV Inc (2 min) (ratio vs. std*) (anesthetized rat): 1.05 ratio vs. std
- half-life at 5 μM [1]: 4.15 h

SMILES: CCCNc1nc(NCc2ccc(Cl)c(Cl)c2)nc2c(NCCC)nc(NC)nc12 [Compound 51a, N^2-(3,4-Dichlorobenzyl)-N^6-methyl-N^4,N^8-di-n-propyl-pyrimido[5,4-d]pyrimidine-2,4,6,8-tetraamine]
- half-life at 5 μM (in vitro): 1.2 h
- AUC MV Inc (2 min) (ratio vs. std*) (anesthetized rat): 0.08 ratio vs. std
- half-life at 5 μM [1]: 2.12 h

SMILES: CCCNc1nc(NC(C)C)nc2c(NCCC)nc(NC(C)C)nc12.Cl [Compound 10a, N^2,N^6-Di-i-propyl-N^4,N^8-di-n-propyl-pyrimido[5,4-d]pyrimidine-2,4,6,8-tetraamine hydrochloride]
- half-life at 5 μM (in vitro): 2.7 h
- AUC MV Inc (2 min) (ratio vs. std*) (anesthetized rat): 0.07 ratio vs. std
- half-life at 5 μM [1]: 7.7 h

SMILES: CNc1nc(N(C)NC)nc2c(NC)nc(N(C)NC)nc12 [Compound 91, 2,6-bis-(N,N′-dimethyl-hydrazino)-N^4,N^8-dimethyl-pyrimido[5,4-d]pyrimidine-4,8-diamine]
- half-life at 5 μM (in vitro): 0.4 h
- AUC MV Inc (2 min) (ratio vs. std*) (anesthetized rat): 0.08 ratio vs. std
- half-life at 5 μM [1]: 1.7 h

SMILES: CCCNc1nc(N(C)OC)nc2c(NCCC)nc(NC)nc12.Cl [Compound 24a, O,N-Dimethyl-N-(6-methylamino-4,8-bis-n-propylamino-pyrimido[5,4-d]pyrimidin-2-yl)-hydroxylamine hydrochloride]
- half-life at 5 μM (in vitro): 2.7 h
- AUC MV Inc (2 min) (ratio vs. std*) (anesthetized rat): 0.43 ratio vs. std
- half-life at 5 μM [1]: 1.98 h

SMILES: CCCNc1nc(-c2ccc(F)cc2)nc2c(NCCC)nc(NC)nc12 [Compound 114a, N^2-Methyl-N^4,N^8-di-n-propyl-6-(4-fluoro-phenyl)-pyrimido[5,4-d]pyrimidine-2,4,8-triamine]
- half-life at 5 μM (in vitro): 4.15 h
- AUC MV Inc (2 min) (ratio vs. std*) (anesthetized rat): 0.05 ratio vs. std
- half-life at 5 μM [1]: 5.08 h

SMILES: CCCCc1nc(NCCC)c2nc(NC)nc(NCCC)c2n1 [Compound 118a, 6-n-Butyl-N^2-methyl-N^4,N^8-di-n-propyl-pyrimido[5,4-d]pyrimidine-2,4,8-triamine]
- half-life at 5 μM (in vitro): 0.567 h
- AUC MV Inc (2 min) (ratio vs. std*) (anesthetized rat): 0.05 ratio vs. std
- half-life at 5 μM [1]: 1.2 h

SMILES: CNc1nc(NC)c2nc(NC)nc(NC)c2n1.Cl [Compound 79a, N^2,N^4,N^6,N^8-Tetramethyl-pyrimido[5,4-d]pyrimidine-2,4,6,8-tetraamine hydrochloride]
- half-life at 5 μM (in vitro): 6.47 h
- AUC MV Inc (2 min) (ratio vs. std*) (anesthetized rat): 0.00 ratio vs. std
- half-life at 5 μM [1]: > 8.33 h

SMILES: CCCNc1nc(NCCOC)nc2c(NCCC)nc(NC)nc12 [Compound 35a, N^2-(2-Methoxyethyl)-N^6-methyl-N^4,N^8-di-n-propyl-pyrimido[5,4-d]pyrimidine-2,4,6,8-tetraamine]
- half-life at 5 μM (in vitro): 1.7 h
- AUC MV Inc (2 min) (ratio vs. std*) (anesthetized rat): 1.33 ratio vs. std
- half-life at 5 μM [1]: 3.75 h

SMILES: C#CCNc1nc(NC)nc2c(NCCC)nc(NC)nc12.Cl [Compound 13a, N^2,N^6-Dimethyl-N^4-n-propyl-N^8-prop-2-ynyl-pyrimido[5,4-d]pyrimidine-2,4,6,8-tetraamine hydrochloride]
- half-life at 5 μM (in vitro): 3.4 h
- AUC MV Inc (2 min) (ratio vs. std*) (anesthetized rat): 0.56 ratio vs. std
- half-life at 5 μM [1]: 5.7 h

SMILES: CCCNc1nc(NCCOC(C)C)nc2c(NCCC)nc(NC)nc12 [Compound 37a, N^2-(2-Isopropoxy-ethyl)-N^6-methyl-N^4,N^8-di-n-propyl-pyrimido[5,4-d]pyrimidine-2,4,6,8-tetraamine]
- half-life at 5 μM (in vitro): 1.27 h
- AUC MV Inc (2 min) (ratio vs. std*) (anesthetized rat): 1.23 ratio vs. std
- half-life at 5 μM [1]: 2.25 h

SMILES: CCCNc1nc(NC)c2nc(-c3ccc(F)cc3)nc(NC)c2n1 [Compound 112a, N^4,N^8-Dimethyl-N^2-n-Propyl-6-(4-fluorophenyl)-pyrimido[5,4-d]pyrimidine-2,4,8-triamine]
- half-life at 5 μM (in vitro): 1.73 h
- AUC MV Inc (2 min) (ratio vs. std*) (anesthetized rat): 0.14 ratio vs. std
- half-life at 5 μM [1]: 2.02 h

SMILES: CCCNc1nc(N(C)OC)nc2c(NCCC)nc(Cl)nc12.Cl [Compound 17a, N-(6-Chloro-4,8-bis-n-propylamino-pyrimido[5,4-d]pyrimidin-2-yl)-O,N-dimethyl-hydroxylamine hydrochloride]
- half-life at 5 μM (in vitro): 0.417 h
- AUC MV Inc (2 min) (ratio vs. std*) (anesthetized rat): 0.05 ratio vs. std
- half-life at 5 μM [1]: 0.483 h

SMILES: CCCNc1nc(NC)c2nc(Cl)nc(NC)c2n1 [Compound 54, 6-Chloro-N^4,N^8-dimethyl-N^2-n-propyl-pyrimido[5,4-d]pyrimidine-2,4,8-triamine]
- half-life at 5 μM (in vitro): 0.667 h
- AUC MV Inc (2 min) (ratio vs. std*) (anesthetized rat): 0.09 ratio vs. std
- half-life at 5 μM [1]: 1.37 h

SMILES: CCCNc1nc(NCCO)nc2c(NCCC)nc(NC)nc12 [Compound 33a, 2-(6-Methylamino-4,8-bis-n-propylamino-pyrimido[5,4-d]pyrimidin-2-yl-amino)-ethanol]
- half-life at 5 μM (in vitro): 1.77 h
- AUC MV Inc (2 min) (ratio vs. std*) (anesthetized rat): 0.29 ratio vs. std
- half-life at 5 μM [1]: 1.92 h

SMILES: CCCNc1nc(N(C)C)nc2c(NCCC)nc(NC)nc12.Cl [Compound 29a, N^2,N^2,N^6-Trimethyl-N^4,N^8-di-n-propyl-pyrimido[5,4-d]pyrimidine-2,4,6,8-tetraamine hydrochloride]
- half-life at 5 μM (in vitro): 0.733 h
- AUC MV Inc (2 min) (ratio vs. std*) (anesthetized rat): 0.95 ratio vs. std
- half-life at 5 μM [1]: 1.57 h

SMILES: CCCNc1nc(N2CCC(OC)CC2)nc2c(NCCC)nc(NC)nc12 [Compound 47a, N^2-Methyl-N^4,N^8-di-n-propyl-6-(4-methoxy-piperidin-1-yl)-pyrimido[5,4-d]pyrimidine-2,4,8-triamine]
- half-life at 5 μM (in vitro): 1.77 h
- AUC MV Inc (2 min) (ratio vs. std*) (anesthetized rat): 0.00 ratio vs. std
- half-life at 5 μM [1]: 1.83 h

SMILES: CCCNc1nc(NCc2ccc(F)cc2)nc2c(NCCC)nc(NC)nc12 [Compound 53a, N^2-(4-Fluorobenzyl)-N^6-methyl-N^4,N^8-di-n-propyl-pyrimido[5,4-d]pyrimidine-2,4,6,8-tetraamine]
- half-life at 5 μM (in vitro): 1.57 h
- AUC MV Inc (2 min) (ratio vs. std*) (anesthetized rat): 0.06 ratio vs. std
- half-life at 5 μM [1]: 1.32 h

SMILES: CCNc1nc(NC)c2nc(NCC)nc(NC)c2n1.Cl [Compound 81a, N^2,N^6-Diethyl-N^4,N^8-dimethyl-pyrimido[5,4-d]pyrimidine-2,4,6,8-tetraamine hydrochloride]
- half-life at 5 μM (in vitro): 4.57 h
- AUC MV Inc (2 min) (ratio vs. std*) (anesthetized rat): 0.00 ratio vs. std
- half-life at 5 μM [1]: 3.3 h

SMILES: CCCNc1nc(N(C)OC)nc2c(NCCC)nc(N(C)OC)nc12 [Compound 19a, N^2,N^6-Bis-(N-Methoxy(N-methyl)amino)-N^4,N^8-bis-n-propylamino-pyrimido[5,4-d]pyrimidine hydrochloride]
- half-life at 5 μM (in vitro): 1.77 h
- AUC MV Inc (2 min) (ratio vs. std*) (anesthetized rat): 0.00 ratio vs. std
- half-life at 5 μM [1]: 1.83 h

SMILES: CCCNc1nc(NCC2CC2)nc2c(NCCC)nc(NCC3CC3)nc12 [Compound 140a, N^2,N^6-Bis-cyclopropylmethyl-N^4,N^8-di-n-propyl-pyrimido[5,4-d]pyrimidine-2,4,6,8-tetraamine]
- half-life at 5 μM (in vitro): 0.833 h
- half-life at 5 μM [1]: 1.18 h

Reference: patent publication US9643971B2 (GALLEON PHARMACEUTICALS, INC., priority 2013, dated 2017)
